This test has as its system CD2F1 mice, L1210 leukemia ip, survival T/C. Kind of test: NCI In Vivo Anticancer Drug Screen. Data for tumor model L1210 Leukemia (intraperitoneal) in CD2F1 (CDF1) mice. Conditions: endpoint: mean survival time, higher = longer survival. The procedure, abridged: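 Compound-dosed mice with transplantable tumor versus matched vehicle controls; endpoint ratio T/C reported.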

Where [1] appears, read: dose: 100.0 mg/kg/injection, schedule: Q01DX001 (ip), vehicle: saline.
Setting [2] is: dose: 400.0 mg/kg/injection, schedule: Q01DX001 (ip), vehicle: saline.
Setting [3] is: dose: 50.0 mg/kg/injection, schedule: Q01DX009 (ip), vehicle: saline with Tween-80.
Where [4] appears, read: dose: 100.0 mg/kg/injection, schedule: Q01DX009 (ip), vehicle: saline with Tween-80.
Where [5] appears, read: dose: 200.0 mg/kg/injection, schedule: Q01DX009 (ip), vehicle: saline with Tween-80.
The mark [6] stands for this setting: dose: 100.0 mg/kg/injection, schedule: Q04DX003 (ip), vehicle: saline with Tween-80.
Setting [7] is: dose: 200.0 mg/kg/injection, schedule: Q04DX003 (ip), vehicle: saline with Tween-80.
Setting [8] is: dose: 400.0 mg/kg/injection, schedule: Q04DX003 (ip), vehicle: saline with Tween-80.
The mark [9] stands for this setting: dose: 200.0 mg/kg/injection, schedule: Q01DX001 (ip), vehicle: saline.
The mark [10] stands for this setting: dose: 100.0 mg/kg/injection, schedule: Q04DX003 (ip), vehicle: saline.
The mark [11] stands for this setting: dose: 200.0 mg/kg/injection, schedule: Q04DX003 (ip), vehicle: saline.
[12] abbreviates: dose: 400.0 mg/kg/injection, schedule: Q04DX003 (ip), vehicle: saline.
The mark [13] stands for this setting: dose: 25.0 mg/kg/injection, schedule: Q04DX003 (ip), vehicle: saline with Tween-80.
[14] abbreviates: dose: 100.0 mg/kg/injection, schedule: Q04DX002 (ip), vehicle: saline with Tween-80.
[15] abbreviates: dose: 200.0 mg/kg/injection, schedule: Q04DX002 (ip), vehicle: saline with Tween-80.
Where [16] appears, read: dose: 400.0 mg/kg/injection, schedule: Q04DX002 (ip), vehicle: saline with Tween-80.
Where [17] appears, read: dose: 75.0 mg/kg/injection, schedule: Q01DX001 (ip), vehicle: saline.
Setting [18] is: dose: 150.0 mg/kg/injection, schedule: Q01DX001 (ip), vehicle: saline.
[19] abbreviates: dose: 300.0 mg/kg/injection, schedule: Q01DX001 (ip), vehicle: saline.
Setting [20] is: dose: 50.0 mg/kg/injection, schedule: Q01DX001 (ip), vehicle: carboxymethylcellulose (CMC).
The mark [21] stands for this setting: dose: 100.0 mg/kg/injection, schedule: Q01DX001 (ip), vehicle: carboxymethylcellulose (CMC).
[22] abbreviates: dose: 200.0 mg/kg/injection, schedule: Q01DX001 (ip), vehicle: carboxymethylcellulose (CMC).

Structures are written as SMILES. Values joined by “and” are separate entries in the source; they are usually repeats but may differ in a detail not shown here. Equal values may be shown once. Inconclusive results and toxic doses are left out.

As to `CC(=O)O.[Th]`, the T/C runs as follows: under setting [1], 92 % of control; under setting [2], 92 % of control.

As to `c1ccc2c(c1)CC1Sc3ccccc3N=C21` (stereo not given), the T/C reads like this: under setting [3], 91 % of control; under setting [4], 91 % of control; under setting [5], 94 % of control.

For `Cc1nc2ccccc2c(=O)n1-c1ccccc1Cl`, the T/C runs as follows: under setting [4], 100 % of control; under setting [6], 100 % of control; under setting [5], 105 % of control; under setting [7], 102 % of control; (dose: 400.0 mg/kg/injection, schedule: Q01DX009 (ip), vehicle: saline with Tween-80) 117 % of control; under setting [8], 112 % of control.

For `COc1cc2c(cc1OC)C(Cc1ccc([N+](=O)[O-])cc1)=NCC2`, the T/C reads like this: under setting [1], 96 % of control; under setting [9], 96 % of control; under setting [2], 102 % of control.

Consider `CCCCCCCCCC1=NC(C)(C)CN1C(C)(C)CO`, for which the T/C (dose: 1.25 mg/kg/injection, schedule: Q01DX009 (ip), vehicle: saline with Tween-80) is 106 % of control; the T/C (dose: 2.5 mg/kg/injection, schedule: Q01DX009 (ip), vehicle: saline with Tween-80) was 109 % of control; the T/C (dose: 5.0 mg/kg/injection, schedule: Q01DX009 (ip), vehicle: saline with Tween-80) was 91 % of control.

As for `COc1cccc(CO)c1Oc1ccc(C)cc1`, the T/C is, setting by setting: under setting [1], 102 % of control; under setting [10], 89 % of control; under setting [9], 105 % of control; under setting [11], 89 % of control; under setting [2], 100 % of control; under setting [12], 89 % of control.

With `Cc1ccc(S(=O)(=O)Nc2ccccc2N(CCN(CCOS(=O)(=O)c2ccc(C)cc2)S(=O)(=O)c2ccc(C)cc2)S(=O)(=O)c2ccc(C)cc2)cc1`, the T/C runs as follows: under setting [13], 95 % of control; (dose: 50.0 mg/kg/injection, schedule: Q04DX003 (ip), vehicle: saline with Tween-80) 100 % of control; under setting [6], 91 % of control; under setting [7], 95 % of control.

With `N#Cc1ccc(CO)cc1Br`, the T/C is, setting by setting: under setting [10], 97 % of control; under setting [11], 90 % of control; under setting [12], 92 % of control.

As for `CC(C)C(=O)C(C)(C)c1nc2ccccc2[nH]1`, the T/C was 106 % of control under setting [14], 98 % of control under setting [15] and 87 % of control under setting [16].

With `CCN(CC)CCN(C)C(O)(C(=O)c1ccccc1)C1CCCCC1` (stereo not given), the T/C is 105 % of control under setting [17], 102 % of control under setting [18] and 100 % of control under setting [19].

Regarding `O=C(OCC1OCOC(COC(=O)c2ccccc2)C(OC(=O)c2ccccc2)C1OC(=O)c1ccccc1)c1ccccc1` (stereo not given), the T/C is 100 % of control under setting [14], 88 % of control under setting [15] and 88 % of control under setting [16].

For `Cl/C=C\C[N+]12CN3CN(CN(C3)C1)C2`, under setting [10], the T/C was 96 % of control.

In the case of `CC/C(=C/c1ccc(OC)cc1)[N+](=O)[O-]`, the T/C (dose: 12.5 mg/kg/injection, schedule: Q01DX009 (ip), vehicle: Klucel (hydroxypropylcellulose) (HPC)) is 113 % of control; the T/C (dose: 25.0 mg/kg/injection, schedule: Q01DX009 (ip), vehicle: Klucel (hydroxypropylcellulose) (HPC)) is 102 % of control; the T/C (dose: 50.0 mg/kg/injection, schedule: Q01DX009 (ip), vehicle: Klucel (hydroxypropylcellulose) (HPC)) was 94 % of control.

Turning to `C=CC1(O)CC2CCC1C2` (stereo not given), the T/C reads like this: under setting [6], 106 % of control; under setting [7], 93 % of control; under setting [8], 101 % of control.

For the compound `CC([NH-])CC(C)[NH-].[Cl][Pt+2][Cl]` (stereo not given), the T/C is 122 % of control (dose: 3.12 mg/kg/injection, schedule: Q04DX003 (ip), vehicle: saline with Tween-80); 162 % of control and 168 % of control (dose: 6.25 mg/kg/injection, schedule: Q04DX003 (ip), vehicle: saline with Tween-80); 92 % of control under setting [13].

With `N=C(N)c1cn(C2OC(CO)C(O)C2O)c2ncnc(N)c12` (stereo not given), the T/C was 123 % of control (dose: 0.63 mg/kg/injection, schedule: Q01DX009 (ip), vehicle: saline) and 124 % of control (dose: 2.5 mg/kg/injection, schedule: Q01DX009 (ip), vehicle: saline).

With `CCOC(=O)c1c2c(n3ccccc13)C(=O)c1ccccc1C2=O`, the T/C under setting [17] is 97 % of control, the T/C under setting [18] is 103 % of control and the T/C under setting [19] was 105 % of control.

Regarding `Cc1ccc(S(=O)(=O)/C=C(\C=C/c2ccccc2)c2ccccc2)cc1`, the T/C was 103 % of control under setting [3], 103 % of control under setting [4] and 106 % of control under setting [5].

In the case of `CCOC(=O)/C(C#N)=C1\CCCc2ccccc21`, the T/C reads like this: (dose: 100.0 mg/kg/injection, schedule: Q04DX003 (ip), vehicle: acetone) 94 % of control; (dose: 200.0 mg/kg/injection, schedule: Q04DX003 (ip), vehicle: acetone) 91 % of control.

On to `c1ccc2nc(CCc3ccc4ccccc4n3)ccc2c1`, for which the T/C reads like this: (dose: 50.0 mg/kg/injection, schedule: Q01DX009 (ip), vehicle: saline) 96 % of control; (dose: 100.0 mg/kg/injection, schedule: Q01DX009 (ip), vehicle: saline) 100 % of control; (dose: 200.0 mg/kg/injection, schedule: Q01DX009 (ip), vehicle: saline) 102 % of control.

On to `CCOC(=O)C(C(C)=O)C(=O)CCc1ccccc1` (stereo not given), for which the T/C is 99 % of control under setting [6], 100 % of control under setting [7] and 103 % of control under setting [8].

For `O=c1oc(/C=C/c2ccccc2)nc2ccccc12`, the T/C under setting [14] is 100 % of control, the T/C under setting [15] was 100 % of control and the T/C under setting [16] is 103 % of control.

With `Cc1ccc(S(=O)(=O)OCCOc2ccc(C(C)(C)CC(C)(C)C)cc2)cc1`, the T/C reads like this: (dose: 100.0 mg/kg/injection, schedule: Q01DX001 (ip), vehicle: Klucel (hydroxypropylcellulose) (HPC)) 93 % of control; (dose: 200.0 mg/kg/injection, schedule: Q01DX001 (ip), vehicle: Klucel (hydroxypropylcellulose) (HPC)) 98 % of control; (dose: 400.0 mg/kg/injection, schedule: Q01DX001 (ip), vehicle: Klucel (hydroxypropylcellulose) (HPC)) 94 % of control.

Take `CC(=O)CCCCOC(C)=O`: the T/C is 101 % of control under setting [6], 101 % of control under setting [7] and 98 % of control under setting [8].

On to `OCC1CCCCCCC1`, for which the T/C is 100 % of control under setting [20]; 100 % of control under setting [21]; 102 % of control under setting [22]; 96 % of control (dose: 400.0 mg/kg/injection, schedule: Q01DX001 (ip), vehicle: carboxymethylcellulose (CMC)).

Consider `Oc1ccccc1C1=CCCCCC1`, for which the T/C is, setting by setting: under setting [10], 95 % of control; under setting [11], 101 % of control; under setting [12], 104 % of control.

Turning to `O=C(O)CCOc1ccc(F)cc1F`, the T/C under setting [14] was 86 % of control, the T/C under setting [15] is 90 % of control and the T/C under setting [16] was 86 % of control.

With `C1CCN(NC2=NCCO2)CC1`, the T/C is 101 % of control (dose: 6.25 mg/kg/injection, schedule: Q01DX009 (ip), vehicle: saline); 98 % of control (dose: 12.5 mg/kg/injection, schedule: Q01DX009 (ip), vehicle: saline); 98 % of control (dose: 25.0 mg/kg/injection, schedule: Q01DX009 (ip), vehicle: saline).

In the case of `O=C(/C=C/c1ccccc1)N1CCOCC1`, the T/C reads like this: (dose: 50.0 mg/kg/injection, schedule: Q04DX003 (ip), vehicle: saline) 102 % of control; under setting [10], 96 % of control; under setting [11], 100 % of control.

For the compound `CNC(=O)n1ncnc1N`, the T/C by setting is: (dose: 12.5 mg/kg/injection, schedule: Q01DX001 (ip), vehicle: carboxymethylcellulose (CMC)) 95 % of control; (dose: 25.0 mg/kg/injection, schedule: Q01DX001 (ip), vehicle: carboxymethylcellulose (CMC)) 100 % of control; under setting [20], 95 % of control; under setting [21], 91 % of control; under setting [22], 93 % of control.

The values are drawn from PubChem BioAssay AID256 (DTP/NCI, 2004).
